# Measured values: ChEMBL document CHEMBL1128584, “Prediction of drug binding affinities by comparative binding energy analysis” (J Med Chem, 1995)
# Target: T1, Phospholipase A2, membrane associated (Homo sapiens) (UniProt P14555)
# T1 sequence (whole entry): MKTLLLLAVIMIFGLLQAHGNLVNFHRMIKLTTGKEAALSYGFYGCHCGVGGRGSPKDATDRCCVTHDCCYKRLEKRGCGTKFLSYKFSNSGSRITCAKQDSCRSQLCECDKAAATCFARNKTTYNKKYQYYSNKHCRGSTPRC
# Experiment: Inhibitory activity against human synovial fluid phospholipase A2 (HSF-PLA2)
# Design: concentration or dose not given beside the values
# Details: concentration not given here
row,Structure (SMILES),inhibition [%]
1,CCCCCCCCCCS(=O)(=O)N[C@H](CCCCCC)COP(=O)(O)OCCOCc1ccccc1 (stereo in doubt; form 1),45
2,CCCCCCCCCCC(=O)NC(CCCCCC)COP(=O)(O)OCCN (stereo not given),28
3,CCCCCCCCCCCC(=O)NC(CCCCCC)COP(=O)(O)CCCC (stereo not given),45
4,CCCCCCCCCCCC(=O)NC(CCCCCC)COP(=O)(CCCC)OC (stereo not given),24
5,CCCCCCCCCCS(=O)(=O)NC(CCc1ccccc1)COP(=O)(O)OCCOCc1ccccc1 (stereo not given),24
6,CCCCCCCCOCC(COP(=O)(O)OCCN)OP(=O)(O)CCCCCCC (stereo not given),33
7,CCCCCCCCCCCC(=O)NC(CCCCCC)COP(=O)(O)OCCO (stereo not given),61
8,CCCCCCCCCCS(=O)(=O)CC(CCCCCC)COP(=O)(O)OCCOCc1ccccc1 (stereo in doubt; form 1),29
9,CCCCCCCCCCCC(=O)NC(CCCCCC)COP(=O)(O)OCCOCc1ccccc1 (stereo not given),6
10,CCCCCCCCCCS(=O)(=O)N[C@H](CCCCCC)COP(=O)(O)OCCOCc1ccccc1 (stereo in doubt; form 3),74
11,CCCCCCCCCCCC(=O)NC(CCCCCC)COP(=O)(O)OCCCC (stereo not given),80
12,CCCCCCCCCCS(=O)(=O)CC(CCCCCC)COP(=O)(O)OCCOCc1ccccc1 (stereo in doubt; form 2),79
13,CCCCCCCCOCC(COP(=O)(O)OCC[N+](C)(C)C)OP(=O)(O)CCCCCCC (stereo not given),9
14,CCCCCCCCCCCC(=O)NC(CCCCCC)COP(=O)(O)OCC(N)C(=O)O (stereo not given),31

# Other lines, results leading:
row,inhibition [%],Structure (SMILES)
1,40,CCCCCCCCCCS(=O)(=O)N[C@H](CCCCCC)COP(=O)(O)OCCO
2,0,CCCCCCCCCCS(=O)(=O)NC(CCCCCC)COP(=O)(O)OCCCC (stereo not given)
3,30,CCCCCCCCCCS(=O)(=O)NC(CCCCCC)COP(=O)(O)CCCC (stereo not given)
4,12,CCCCCCCCCCS(=O)(=O)NC(CCCCCC)COP(=O)(O)OCCOCc1ccccc1 (stereo in doubt; form 1)
5,28,CCCCCCCCCCS(=O)(=O)NC(CCCCCC)COS(=O)(=O)CCCOCc1ccccc1 (stereo not given)
6,36,CCCCCCCCCCS(=O)(=O)NC(CCCCCC)COP(=O)(O)OCCOCc1ccccc1 (stereo in doubt; form 2)
7,0,CCCCCCCCCCS(=O)(=O)NC(CCCCCC)COCC(F)(F)F (stereo not given)
8,4,CCCCCCCCCCS(=O)(=O)NC(CCCCCC)COP(=O)(O)OCCN (stereo not given)
9,49,CCCCCCCCCCS(=O)(=O)NC(CCCCCC)COP(=O)(O)OCCO (stereo in doubt; form 1)
10,46,CCCCCCCCCCS(=O)(=O)N[C@H](CCCCCC)COP(=O)(O)OCCOCc1ccccc1 (stereo in doubt; form 2)
11,44,CCCCCCCCCCS(=O)(=O)NC(CCCCCC)COP(=O)(O)OCCO (stereo in doubt; form 2)
